In PubChem BioAssay AID1918999 (Molecular Pharmacology Branch, DTP, NCI, 2023):

Tested on: 556581-035-R-J1-PDC complex spheroid growth
Test: Anticancer human tumor 556581-035-R-J1-PDC patient-derived ovarian carcinoma cell line growth inhibition [AhR]
Conditions: for IC50: curve of first compound; for viability, T/C: stronger effect = lower value
How it was run: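 Agents were dosed in half-log steps down from roughly clinical Cmax, or from 10 microM where Cmax was unknown, alone and with AhR antagonists. Read-out: percent test/control growth of tumor spheroids containing HUVEC and MSC stromal cells.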

[1] = second compound 0.1 µM, first compound 0.0316 µM
[2] = second compound 0.1 µM, first compound 0.1 µM
[3] = second compound 0.1 µM, first compound 0.316 µM
[4] = second compound 0.1 µM, first compound 1 µM
[5] = second compound 0.1 µM, first compound 3.16 µM
[6] = second compound 0.1 µM, first compound 10 µM
[7] = second compound 0.316 µM, first compound 0.0316 µM
[8] = second compound 0.316 µM, first compound 0.1 µM
[9] = second compound 0.316 µM, first compound 0.316 µM
[10] = second compound 0.316 µM, first compound 1 µM
[11] = second compound 0.316 µM, first compound 3.16 µM
[12] = second compound 0.316 µM, first compound 10 µM
[13] = second compound 1 µM, first compound 0.0316 µM
[14] = second compound 1 µM, first compound 0.1 µM
[15] = second compound 1 µM, first compound 0.316 µM
[16] = second compound 1 µM, first compound 1 µM
[17] = second compound 1 µM, first compound 3.16 µM
[18] = second compound 1 µM, first compound 10 µM
[19] = second compound 3.16 µM, first compound 0.0316 µM
[20] = second compound 3.16 µM, first compound 0.1 µM
[21] = second compound 3.16 µM, first compound 0.316 µM
[22] = second compound 3.16 µM, first compound 1 µM
[23] = second compound 3.16 µM, first compound 3.16 µM
[24] = second compound 3.16 µM, first compound 10 µM
[25] = second compound 10 µM, first compound 0.0316 µM
[26] = second compound 10 µM, first compound 0.1 µM
[27] = second compound 10 µM, first compound 0.316 µM
[28] = second compound 10 µM, first compound 1 µM
[29] = second compound 10 µM, first compound 3.16 µM
[30] = second compound 10 µM, first compound 10 µM
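Throughout, for viability, T/C: compound exposure lasted 7 days; 100% = DMSO vehicle control growth.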

IC50 (second compound 0.1 µM) | IC50 (second compound 0.316 µM) | IC50 (second compound 1 µM) | IC50 (second compound 3.16 µM) | IC50 (second compound 10 µM) | SMILES | viability, T/C [1] | viability, T/C [2] | viability, T/C [3] | viability, T/C [4] | viability, T/C [5] | viability, T/C [6] | viability, T/C [7] | viability, T/C [8] | viability, T/C [9] | viability, T/C [10] | viability, T/C [11] | viability, T/C [12] | viability, T/C [13] | viability, T/C [14] | viability, T/C [15] | also measured
2.77 µM | 2.42 µM | 2.53 µM | 1.94 µM | 0.791 µM | Nc1ccccc1NC(=O)c1ccc(CNC(=O)OCc2cccnc2)cc1 + Cc1cncc(-c2nc(NCCc3c[nH]c4ccccc34)c3ncn(C(C)C)c3n2)c1 | 106% | 100% | 93.7% | 76.3% | 46.2% | 19.3% | 107% | 121% | 102% | 78.5% | 42% | 19.7% | 108% | 107% | 89.5% | viability, T/C [16]: 77%; viability, T/C [17]: 42.2%; viability, T/C [18]: 22.2%; viability, T/C [19]: 93%; viability, T/C [20]: 99.2%; viability, T/C [21]: 98.7%; viability, T/C [22]: 67%; viability, T/C [23]: 37.6%; viability, T/C [24]: 18.1%; viability, T/C [25]: 79%; viability, T/C [26]: 87%; viability, T/C [27]: 64.5%; viability, T/C [28]: 47.1%; viability, T/C [29]: 22.8%; viability, T/C [30]: 14.7%
1.48 µM | 1.68 µM | 1.42 µM | 1.46 µM | 0.938 µM | O=C(C=Cc1cccc(S(=O)(=O)Nc2ccccc2)c1)NO + Cc1cncc(-c2nc(NCCc3c[nH]c4ccccc34)c3ncn(C(C)C)c3n2)c1 | 106% | 118% | 90.2% | 58% | 32% | 3.96% | 102% | 104% | 87.3% | 69.6% | 27.9% | 3.92% | 111% | 114% | 82.2% | viability, T/C [16]: 60.9%; viability, T/C [17]: 28.9%; viability, T/C [18]: 5.09%; viability, T/C [19]: 108%; viability, T/C [20]: 101%; viability, T/C [21]: 87%; viability, T/C [22]: 62.5%; viability, T/C [23]: 26.9%; viability, T/C [24]: 6.45%; viability, T/C [25]: 92.2%; viability, T/C [26]: 88.8%; viability, T/C [27]: 80.1%; viability, T/C [28]: 43.5%; viability, T/C [29]: 24.8%; viability, T/C [30]: 4.13%
> 10 µM | > 10 µM | > 10 µM | > 10 µM | > 10 µM | O=C(c1cc(Cc2n[nH]c(=O)c3ccccc23)ccc1F)N1CCN(C(=O)C2CC2)CC1 + Cc1cncc(-c2nc(NCCc3c[nH]c4ccccc34)c3ncn(C(C)C)c3n2)c1 | 98.4% | 107% | 101% | 89.6% | 94.6% | 82% | 112% | 105% | 104% | 91.2% | 91.9% | 78.9% | 108% | 102% | 99.3% | viability, T/C [16]: 95.9%; viability, T/C [17]: 98.8%; viability, T/C [18]: 90.2%; viability, T/C [19]: 104%; viability, T/C [20]: 108%; viability, T/C [21]: 95.3%; viability, T/C [22]: 89.2%; viability, T/C [23]: 94.3%; viability, T/C [24]: 81.3%; viability, T/C [25]: 90%; viability, T/C [26]: 95.4%; viability, T/C [27]: 95.2%; viability, T/C [28]: 86.2%; viability, T/C [29]: 92.7%; viability, T/C [30]: 83.2%
